Assay results published in patent US20240238251A9, “A Composition Comprising Heterocyclic Compounds, Preparation Method and Application Thereof” (SHANGHAI YASHENG PHARMACEUTICAL TECHNOLOGY CO., LTD., priority 2020, published 2024).

Assay: Pharmacokinetics after oral administration in dogs
Type: in vivo, beagle dogs
Description: After fully grinding and mixing the samples with PEG400 (the concentration in the sample solution was 5%), a small amount (about 2 ml) of 0.2% HPMC aqueous solution was added to grind into a uniform paste until there were no large particles. Under the condition of continuous grinding, 0.2% HPMC aqueous solution was added to a sufficient amount and maintained stirring (800 RPM) for 5 minutes. After sealing the sample solution container with sealing film, it was placed in the ultrasonic instrument (40 kHz) for ultrasonic for 20 minutes (to avoid the rise of ultrasonic medium water temperature during ultrasonic process, the water temperature was controlled within 40° C.); Stopped the ultrasound, mixed the suspension evenly before use (stirring for about 3 minutes), and then sampled immediately (the concentration of the sample was 6 mg/ml).
Test method: three male beagle dogs were selected and divided into test article 1 (APG-115 particles) group and test article 2 (APG-115 hydrate) group. Each group received single oral capsule administration: after the administration of test article 1, after an 8-day cleaning period, the group name was changed to test article 2, and so on.
Blood samples were collected and plasma was separated at 0.5, 1.0, 2.0, 4.0, 6.0, 10, 24, 48, 72, 96, 120, 144 and 168 hours before and after each round of administration. All plasma samples were mailed to the client for testing. The concentration of APG-115 in dog plasma was analyzed by LC-MS/Ms. The lower limit of quantification of the method was 50 ng/ml. The non compartmental model method (NCA) of the metabolic kinetic data analysis software winnonlin 8.0.0.3176 was used to analyze the plasma concentration data and calculate the pharmacokinetic parameters. See table 21 to evaluate the kinetic characteristics of APG-115 in animals after administration.

[1] = dog, plasma, male beagle dogs, single oral administration, Mean
[2] = male beagle dogs, single oral administration, Mean

- AUC(0-inf) [1]: 33400 ng·h/mL
- AUC(0-t) [1]: 4580 ng·h/mL
- Cmax [1]: 136 ng/mL
- MRT [1]: 31.4 h
- Tmax [1]: 6 h
- half-life [1]: 346 h
- exposure in dogs (dogs, oral, in words): very low
- CL [2]: 1.013 mL/min/kg
- Vd [2]: 29.08877 L/kg
SMILES: CCN1[C@@H](C(=O)NC23CCC(C(=O)O)(CC2)CC3)[C@H](c2cccc(Cl)c2F)[C@]2(C(=O)Nc3cc(Cl)ccc32)C12CCCCC2 [APG-115 hydrate]
